Columns and labels:
S. aureus NfsB = type: biochemical; details: NADH 40 μM, substrate varied, Michaelis-Menten fit
Method: F-ENB, F-NB and F-NAP by NfsB was performed in 50 mM Tris-HCl buffer (pH 7.4) containing 5 mM EDTA, and 40 μM NADH in a total reaction volume of 500 μL. The reaction was initiated by adding enzyme (22 nM) and the consumption of NADH was monitored at 340 nm. […] Initial velocities as a function of substrate concentration were fitted to the Michaelis-Menten equation using GraphPad Prism 4. Each experiment was performed in triplicate and all the data points were included when the data were fit by the Michaelis-Menten equation.
The nitroreductase assay was performed at room temperature in 50 mM Tris-HCl buffer, pH 7.4, containing 5 mM EDTA in a total reaction volume of 500 μL. Reactions were initiated by the addition of NfsB to a final concentration of 45 nM, and the consumption of NADH was continuously monitored at 340 nm. […] The experiments were performed in triplicate and the initial velocities as a function of substrate concentration were globally fit to the Michaelis-Menten equation using GraphPad Prism 4.

S. aureus Xen29 [1] = assay: Rescue of sulfamethoxazole antibacterial effect (MIC, microbroth dilution in M9 media); type: cell-based
Method: FIG. 13. Impact of PABA analogues on the antibacterial activity of sulfamethoxazole (SMX).
Antibacterial susceptibility tests for aerobically growing bacteria were performed with a modified microbroth dilution assay according to the Clinical and Laboratory Standard Institute in transparent 96-well plates (CLSI. 2006). S. aureus Xen29 (PerkinElmer) were utilized in this study. Briefly, bacteria were grown to mid log phase (OD600 of 0.6-0.7) in cation-adjusted Mueller-Hinton (CAMH) media at 37° C. in an orbital shaker. Subsequently, bacteria were resuspended in the M9 media. A final concentration of 10^6 CFU/mL per well was added to M9 media (1% glucose, 1% casamino acids, 1 mM thiamine, 0.05 mM nicotinamide, 2 mM MgCl2, 0.1 mM CaCl2) containing 2-fold dilutions of SMX to give final concentrations ranging from 0.05 to 100 μg/mL either alone or in the presence of PABA (0.8 μg/mL and 4 μg/mL), F-PABA (0.8 μg/mL and 4 μg/mL), F-NB (10 μg/mL, 20 μg/mL and 40 μg/mL), or F-NAP (10 μg/mL, 20 μg/mL and 40 μg/mL). The plate was examined for bacteria growth using a UV-vis plate reader after 24 h incubation at 37° C. The MIC was recorded as the lowest SMX concentration (μM) required to inhibit at least 90% of bacterial growth as judged by the absorbance of the culture media.

bacterial cells = assay: MIC / toxicity of F-PABA; type: cell-based
S. aureus Xen29 [2] = assay: PET/CT imaging of rat triceps infection / sterile inflammation model (S. aureus Xen29); type: in vivo, Sprague-Dawley rats
Method: FIG. 5. PET/CT imaging of rats infected in the right triceps with the bioluminescent Xen29 strain of S. aureus. (A) Experimental design. (B) 2-[^18F]F-ENB-derived radioactivity accumulates in the infected triceps (red arrow) but not the inflamed triceps (yellow arrow) at 3 h post tracer administration.
FIG. 8. PET/CT imaging of 2-[^18F]F-NB in a rat model of S. aureus Xen29 infection. (A) Radiosynthesis of 2-[^18F]F-NB. (i) [^18F]potassium fluoride, Kryptofix222, potassium carbonate, dimethyl sulfoxide, r.t., 10 min; (ii) 2 M potassium hydroxide in H2O, 105° C., 10 min; Overall decay-corrected radiochemical yield: 26% (n=1).
FIG. 10. Time activity curve (TAC) in infected triceps, inflamed triceps and blood and biodistribution of 2-[^18F]F-NB in major organs. (a) The right triceps of the rats were infected with S. aureus Xen 29 and the left triceps were injected with a 10-fold higher burden of heat-killed S. aureus to induce sterile inflammation. The rats were scanned by PET/CT for 120 min (rats with sterile inflammation in the left triceps) immediately starting from tracer administration. The PET scan was separated into ten frames (1-min) and twenty-two frames (5-min). TACs of infected triceps (blue), inflamed triceps (grey) and blood (left heart ventricle, red) are shown. Data represented as mean with standard error of the mean (n=4). (b) Time-dependent accumulation of 2-[^18F]F-NB in infected and inflamed triceps compared to the blood (left heart ventricle). Data are presented as the mean and standard error of the mean (n=4). […]
(§1) S. aureus (Newman or Xen29) was cultured overnight by inoculating 5 μL of bacteria from a glycerol stock into 10 mL of fresh cation-adjusted Mueller-Hinton (CAMH) broth or tryptic soy broth (TSB). […] After imaging, the infected triceps were collected, homogenized in PBS using a hand-held homogenizer, and the bacterial burden at the time of imaging was determined by plating the muscle tissues onto solid MH medium. After overnight incubation at 37° C., CFUs were quantified by enumeration. […]

S. aureus Newman [3] = assay: In vitro cellular uptake of radiotracer; type: cell-based; details: 1 μCi/mL, 120 min incubation, versus heat killed bacteria
Method: (§2) FIG. 12. In vitro 2-[^18F]F-NB uptake by S. aureus Newman and Xen29. 1 μCi of 2-[^18F]F-NB was incubated in a 1 mL culture of S. aureus Newman (green bars) or S. aureus Xen29 (blue bars) for 5, 30, 60, 90 and 120 min.
(§3) S. aureus Newman and S. aureus Xen29 were aerobically grown to OD600 0.6 in LB media at 37° C. To evaluate the uptake of 2-[^18F]F-NB, the bacteria were incubated with 1 μCi/mL of the radiotracer at 37° C. with rapid agitation. Heat-killed (90° C. for 30 min) bacteria were similarly incubated with 2-[^18F]FNB. Aliquots (1 mL) were removed after 5, 30, 60, 90, and 120 min and pelleted by centrifugation (11 000 rpm, 3 min) and washed three times with cold phosphate buffered saline (PBS). Total radioactivity was measured using an automated gamma counter and is reported as the percentage of radioactivity added to the culture. A minimum of five replicates were used for each assay and time point.

S. aureus Xen29 [4] = assay: In vitro cellular uptake of radiotracer; type: cell-based; details: 1 μCi/mL, 120 min incubation, versus heat killed bacteria
Method: as §2, §3

S. aureus Newman [5] = assay: PET/CT imaging of rat triceps infection / sterile inflammation model (S. aureus Newman); type: in vivo, Sprague-Dawley rats; details: 60-80 min after tracer injection
Method: FIG. 3. PET/CT imaging of a rat model of S. aureus Newman-induced triceps infection. (A) [^18F]FDG PET/CT of a rat in which 8.2±0.2 log10 CFU of S. aureus Newman has been injected into the right triceps (red arrow) and with sterile inflammation in the left triceps (yellow arrow). The image was acquired 60-80 min after tracer injection. (B) Comparison of [18F]FDG accumulation 60-80 min postinjection at sites of infection and sterile inflammation, represented as % injected dose per cc (% ID/cc). […] (D) Comparison of 2-[^18F]F-ENB accumulation in the infected triceps and inflamed triceps 180-200 min after tracer injection: ***P<0.001 from a two-tailed Mann-Whitney U Test (n=7). (E) Ex vivo PET imaging of the excised infected triceps. The area of infection is highlighted in yellow. […]
as §1

DHPS = DHPS (Staphylococcus aureus, UniProt O05701); assay: HPPK-DHPS-DHFR coupled assay; type: biochemical; details: concentration of 80 μM
Sequence of DHPS (O05701 whole entry): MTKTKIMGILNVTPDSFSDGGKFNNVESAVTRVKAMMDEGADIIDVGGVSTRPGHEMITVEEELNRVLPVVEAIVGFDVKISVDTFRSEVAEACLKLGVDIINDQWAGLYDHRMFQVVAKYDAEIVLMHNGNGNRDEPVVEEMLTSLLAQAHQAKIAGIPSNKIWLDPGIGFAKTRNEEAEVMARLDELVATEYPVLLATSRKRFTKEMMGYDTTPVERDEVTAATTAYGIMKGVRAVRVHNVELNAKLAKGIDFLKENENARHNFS

CCOC(=O)c1ccc([N+](=O)[O-])cc1F [2-F-ENB, Ethyl 2-fluoro-4-nitrobenzoate]
kcat (S. aureus NfsB): 16.1 ± 1.7 s⁻¹

Cc1cc(NS(=O)(=O)c2ccc(N)cc2)no1 [sulfamethoxazole]
MIC (S. aureus Xen29 [1]; Staphylococcus aureus, XEN29, 24 h, M9 media, read-out: MIC of sulfamethoxazole alone): 1.56 µg/mL

O=C(O)c1ccc([N+](=O)[O-])cc1F [2-F-NB, 2-fluoro-p-nitrobenzoate]
rescue of growth in the presence of sulfamethoxazole (S. aureus Xen29 [1]): antagonized the activity of sulfamethoxazole
MIC of sulfamethoxazole in the presence of 40 μg/mL 2-F-NB (S. aureus Xen29 [1]; 40 μg/mL 2-F-NB): 12.5 µg/mL
kcat (S. aureus NfsB): 12.4 ± 1.6 s⁻¹

Nc1ccc(C(=O)O)c(F)c1 [F-PABA, 2-fluoro-4-aminobenzoic acid]
rescue of growth in the presence of sulfamethoxazole (S. aureus Xen29 [1]): rescued bacterial growth in a concentration-dependent manner
MIC of sulfamethoxazole in the presence of 0.8 μg/mL F-PABA (S. aureus Xen29 [1]; 0.8 μg/mL F-PABA): 12.5 µg/mL
increase of sulfamethoxazole MIC by 0.8 μg/mL F-PABA (S. aureus Xen29 [1]; 0.8 μg/mL F-PABA): 8 fold
MIC of sulfamethoxazole in the presence of 4 μg/mL F-PABA (S. aureus Xen29 [1]; 4 μg/mL F-PABA): over 100 μg/mL
MIC (bacterial cells): > 100 µg/mL
toxicity to bacterial or mammalian cells (bacterial cells): not toxic to either bacterial or mammalian cells

O=C(O)c1ccc([N+](=O)[O-])cc1[18F] [2-[^18F]F-NB, 2-[^18F]F-4-nitrobenzoate]
signal at the infection site versus site of sterile inflammation (S. aureus Xen29 [2]; 3 h post injection, ROI analysis): 17 fold
localisation of radioactive signal (S. aureus Xen29 [2]; 180 min post tracer injection): localized at the site of infection
uptake of radiotracer by live bacteria (S. aureus Newman [3]): Time dependent uptake
uptake of radiotracer by live bacteria (S. aureus Xen29 [4]): Time dependent uptake

Nc1ccc(C(=O)O)cc1 [PABA, p-aminobenzoic acid]
rescue of growth in the presence of sulfamethoxazole (S. aureus Xen29 [1]): bacterial regrowth in the presence of sulfamethoxazole occurred

CC(=O)c1ccc([N+](=O)[O-])cc1F [2-F-NAP, 2-fluoro-4-nitroacetophenone]
rescue of growth in the presence of sulfamethoxazole (S. aureus Xen29 [1]): unable to rescue growth

O=C[C@H]([18F])[C@@H](O)[C@H](O)[C@H](O)CO [[^18F]FDG, 2-Deoxy-2-[18F]fluoro-D-glucose]
radioactivity in the infected triceps (S. aureus Newman [5]): 0.8 % ID/cc
radioactivity in the inflamed triceps (S. aureus Newman [5]; sterile inflammation): 1.2 % ID/cc

CC(=O)c1ccc(N)cc1F [2-fluoro-4-aminoacetophenone, 2-Fluoro-4-aminoacetophenone]
substrate for DHPS (DHPS): not an efficient substrate for DHPS

Source: patent publication US20230226228A1, “POSITRON IMAGING TOMOGRAPHY IMAGING AGENT COMPOSITION AND METHOD FOR DETECTION OF BACTERIAL INFECTION” (priority 2020, published 2023)
